In patent US8883856B2, “Compositions and methods for the treatment of inflammatory diseases using topoisomerase inhibitors” (priority 2000, dated 2014):
Like-named read-outs stand apart in the source and are kept apart here.

Columns and labels:
[1] = tested on: smooth muscle cells (A7r5 rat embryonic thoracic aorta); assay: MTT proliferation/cytotoxicity assay, smooth muscle cells; assay type: cell-based; settings: read-out: inhibitory concentration that gave 50% effect on proliferation (IC50), smooth muscle cells
Procedure: (§1) Proliferation was determined using the MTT proliferation/cytotoxicity assay.
(§2) On day one, 1500-2000 smooth muscle cells (A7r5 rat embryonic thoracic aorta) or synoviocytes (HIG.82 rabbit) were plated per well on a 96-well plate, leaving the first column free of cells (blank). The plate was placed back into the 37° C., CO2 incubator. The following day camptothecin was added at various concentrations. No drugs were added to the first column (blank) and the second column (untreated column) for control. The cells were exposed for 24, 48, and 72 hours. At the end of the exposure period, 50 μl of dimethylthiazol diphenyltetrazolium bromide salt (MTT) dissolved in media was added and allowed to incubate for 4 hours at 37° C. The medium was then aspirated and 200 μl of dimethyl sulfoxide was added. The plate was agitated for 30 minutes and the absorbance read at 562 nm. The optical density measurement was converted to number of cells using a standard plot of optical density with known number of cells and cell viability was expressed as % growth (this value is the % of the control cells).

[2] = tested on: human neutrophils; assay: Neutrophil chemiluminescence (neutrophil activation); assay type: cell-based; settings: for IC50 / inhibition at 10 µM: Homo sapiens, Neutrophil; for IC50: read-out: IC 50, inhibition of neutrophil chemiluminescence
Procedure: Freshly prepared human neutrophils were incubated with the compound followed by stimulation of the cells with either plasma opsonized CPPD crystals, the bacterial chemoattractant, fMLP or the phorbol ester, PMA. Stimulation (or activation) of the cells induced superoxide anion generation which could be measured by the emission of light (chemiluminescence). Inhibition of neutrophil function was then determined by inhibition of chemiluminescence. Hanks buffered salt solution (HBSS) pH 7.4 was used throughout the study. All chemicals were purchased from Sigma Chemical Co. (St. Louis, Mo.) unless otherwise stated. All procedures were performed at 37° C. unless otherwise stated. CPPD (triclinic) crystals were prepared and characterized as previously reported (Jackson J K et al., J Rheumatol, 24: 341-348, 1996). The size distribution of the crystals was approximately 33% less than […]. Opsonization of crystals was carried out using 50% heparinized plasma and concentrations of 50 mg of CPPD in 1 mL of 50% plasma. Crystals were incubated with diluted plasma for 30 min at 37° C., centrifuged at 1000×g, then washed in HBSS and recentrifuged. Neutrophils were prepared from freshly collected, human, citrated whole blood. Briefly, 400 mL of blood were mixed with 80 mL of 4% dextran T500 (Pharmacia LKB, Biotechnology AB Uppsala, Sweden) in HBSS and allowed to settle for 1 h. Plasma was collected continuously and 5 mL applied to 5 mL Ficoll Paque (Pharmacia) in 15 mL polypropylene tubes (Corning, N.Y.). Following centrifugation at 500×g for 30 min, the neutrophil pellets were washed free of erythrocytes by 20 s of hypotonic shock. Neutrophils were resuspended in HBSS, kept on ice and used for experiments within 3 h. Neutrophil viability and purity was always greater than 90%.
A stock solution of drug was diluted in DMSO to give various concentrations of drug. Equal volumes of these solutions were added to neutrophils at 5×10^6 cells per mL under mild vortexing to achieve final concentrations with a final DMSO concentration of 0.25%. This DMSO concentration found to have no effect on control cell responses. Cells were incubated for 15 minutes at 37° C. before addition to crystals, fMLP or PMA.
Chemiluminescence studies were performed at a cell concentration of 5×10^6 cells per mL in HBSS with CPPD (50 mg/mL). In all experiments 0.5 mL of cells were added to 25 mg of CPPD or 1 uM fMLP (and 0.5 uM cytochalasin B) or 0.5 uM PMA in 1.5 ml Eppendorf tubes. To the tubes were added 10 uL of luminol dissolved in 25% DMSO in HBSS to give a final concentration of 1 μM and the samples were mixed to initiate neutrophil activation. Chemiluminescence was monitored using an LKB Luminometer (Model 1250) at 37° C. with shaking immediately prior to measurements to resuspend the crystals. Control tubes contained cells, drug and luminol (crystals absent).

[3] = tested on: stromelycin gene; assay: IL-1 induced stromelycin gene expression in chondrocytes; assay type: cell-based, calf; settings: for stromelysin expression: 1×10^−6 M
Excerpt: (§3) This assay measures the levels of RNA for the two metalloproteinases, collagenase and stromelysin. Over-expression of these genes results in excessive synthesis and secretion of these two enzymes from articular chondrocytes and may represent part of the pathophysiology of rheumatoid arthritis. Agents that inhibit over-expression of collagenase and stromelysin can be antiarthritc agents. […] Proteoglycan gene expression is part of the normal physiology of chondrocytes.
(§4) Primary chondrocyte culture was freshly isolated from calf cartilage. The cells were plated (at 2.5×10^6/mL) in 100×20 mm culture dishes and incubated in Ham's F12 medium containing 5% fetal bovine serum (FBS) overnight at 37° C. The cells were starved with serum-free medium overnight. […] Then IL-1 (20 ng/mL) was added to each plate and the plates were incubated for an additional 18 hours. Total RNA was isolated by the acidified guanidine isothiocyanate method and subjected to electrophoresis on a denatured gel. Denatured RNA samples (15 ug) were analyzed by gel electrophoresis in a 1% denaturing gel, transferred to a nylon membrane, and hybridized respectively with the ^32P-labelled collagenase cDNA probe, ^32P-labelled stromelycin cDNA probe, ^32P-labelled proteoglycan cDNA probe and ^32P-labelled glyceraldehyde phosphate dehydrogenase (PAGDH) cDNA. The PAGDH levels acted as an internal standard to ensure roughly equal loading. The experimental results on X-ray films were scanned and analyzed with HP ScanJet.

[4] = tested on: synoviocytes (HIG.82 rabbit); assay: MTT proliferation/cytotoxicity assay, synoviocytes; assay type: cell-based; settings: Oryctolagus cuniculus, read-out: inhibitory concentration that gave 50% effect on proliferation (IC50), synoviocytes
Procedure: as §1, §2

[5] = tested on: collagenase gene; assay: IL-1 induced collagenase gene expression in chondrocytes; assay type: cell-based, calf
Excerpt: as §3, §4

[6] = three agonists: CPPD crystals, fMLP, PMA

Row | SMILES | IC50 ([1]; A7R5, 48 hours exposure) | IC50 [2, 6] | IL-1 induced stromelycin gene expression ([3]; 1×10^−5 M) | IC50 ([4]; 48 hours exposure) | IL-1 induced collagenase gene expression ([5]; 1×10^−5 M) | IC50 ([1]; A7R5, 48 h) | inhibition of neutrophil chemiluminescence ([2]; concentration printed as (5%)) | IL-1 induced stromelycin gene expression ([3]; 1×10^−7 M) | IC50 ([4]; 48 h) | IL-1 induced collagenase gene expression ([5]; 1×10^−7 M) | inhibition at 10 µM [2] | stromelysin expression [3] | IC50 ([2]; activation by MSUM crystals)
1 | CC1(C)CCC2=C(O1)c1ccccc1C(=O)C2=O [beta-lapachone] | 6.3 µM | 1 to 10 µM | almost completely inhibited | 5.6 µM | almost completely inhibited | – | – | – | – | – | – | – | –
2 | CC[C@@]1(O)C(=O)OCc2c1cc1n(c2=O)Cc2cc3ccccc3nc2-1 [camptothecin] | – | – | – | – | – | 1.6 µM | 2% | almost completely inhibited | 0.065 µM | almost completely inhibited | – | – | –
3 | COc1cccc2c1C(=O)c1c(O)c3c(c(O)c1C2=O)C[C@@](O)(C(=O)CO)C[C@@H]3O[C@H]1C[C@H](N)[C@H](O)[C@H](C)O1 [doxorubicin] | 0.6 µM | – | completely inhibited | 0.1 µM | completely inhibited | – | – | – | – | – | 13% | partial inhibition | –
4 | COc1cc([C@@H]2c3cc4c(cc3[C@@H](O[C@@H]3O[C@@H]5CO[C@@H](C)O[C@H]5[C@H](O)[C@H]3O)[C@H]3COC(=O)[C@H]23)OCO4)cc(OC)c1O [etoposide] | ~15 µM | – | inhibited | ~15 µM | inhibited | – | – | – | – | – | 25% | – | –
5 | CC1=CC(=O)c2ccccc2C1=O [menadione] | 8.2 µM | – | inhibited | 15 µM | inhibited | – | – | – | – | – | – | – | 0.5 to 1 µg/mL
6 | CC1=CC(=O)c2c(O)cccc2C1=O [plumbagin] | 2.6 µM | < 1 µg/mL | completely inhibited | 3.6 µM | completely inhibited | – | – | – | – | – | – | partial inhibition | –
